According to patent publication US20250084039A1, “4-SUBSTITUTED AMINOISOQUINOLINE DERIVATIVES” (Purdue Research Foundation, priority 2016, published 2025):

What was measured:
MRC5 = assay: Selectivity, proliferation IC50 (normal cell line); assay type: cell-based; details: Homo sapiens, read-out: IC50 MRC5 (normal lung fibroblast)
Procedure: Cell lines were seeded into 96-well plates the afternoon prior to treatment. Approximately 18 hours later, compounds were diluted in dimethyl sulfoxide (DMSO) and added to cells. Plates were incubated for 72 hours and cells viability determined with CellTiter-Blue Cell Viability Assay (Promega, Madison, WI). Plates were read after 4 additional hours of incubation at 37° C. using plate reader (Bio-Tek, Winooski. VT). Data was analyzed and graphed using GraphPad Prism Software (Graphpad. La Jolla, CA).

LYN = LYN (Homo sapiens (Human), UniProt P07948); assay: DiscoverX Kd Elect binding
LYN, sequence (P07948 whole entry): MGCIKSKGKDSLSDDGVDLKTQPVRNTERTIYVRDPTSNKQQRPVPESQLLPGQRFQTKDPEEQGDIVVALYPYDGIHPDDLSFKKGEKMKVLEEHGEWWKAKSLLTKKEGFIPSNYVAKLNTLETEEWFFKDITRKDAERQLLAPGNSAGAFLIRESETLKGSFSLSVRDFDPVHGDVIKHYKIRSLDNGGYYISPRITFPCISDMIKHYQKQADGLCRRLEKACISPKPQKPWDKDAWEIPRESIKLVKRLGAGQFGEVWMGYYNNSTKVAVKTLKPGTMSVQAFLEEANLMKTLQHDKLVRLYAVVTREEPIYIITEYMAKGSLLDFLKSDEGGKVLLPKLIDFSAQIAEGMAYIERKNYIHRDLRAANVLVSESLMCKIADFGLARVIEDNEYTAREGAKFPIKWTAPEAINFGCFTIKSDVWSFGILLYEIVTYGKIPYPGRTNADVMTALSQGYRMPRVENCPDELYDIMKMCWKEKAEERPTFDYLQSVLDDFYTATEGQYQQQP
Procedure: (§1) HCK is expressed more in human primary leukemic stem cells than in human normal hematopoietic stem cells. […] Other protein kinases such as SYK, BRAF, p38 (p38MAPK), PDGFRα/β, FGFR1, RET, FLT4, Tie2 have also been linked to leukemia. […] Thus, it was tested if HSN286 and analogs were also targeting kinases that play critical roles in AML. […] (Table 9). The inhibition of the Src-kinase family could be important clinically because these kinases are downstream of FLT3. In the event of FLT3 mutation, the inhibition of the Src-family kinases could still lead to proliferation inhibition.

PIM1 = PIM1 (Homo sapiens (Human), UniProt P11309); assay: DiscoverX Kd Elect binding
Procedure: as §1

FGR = FGR (Homo sapiens (Human), UniProt P09769); assay: DiscoverX Kd Elect binding
FGR, sequence (P09769 whole entry): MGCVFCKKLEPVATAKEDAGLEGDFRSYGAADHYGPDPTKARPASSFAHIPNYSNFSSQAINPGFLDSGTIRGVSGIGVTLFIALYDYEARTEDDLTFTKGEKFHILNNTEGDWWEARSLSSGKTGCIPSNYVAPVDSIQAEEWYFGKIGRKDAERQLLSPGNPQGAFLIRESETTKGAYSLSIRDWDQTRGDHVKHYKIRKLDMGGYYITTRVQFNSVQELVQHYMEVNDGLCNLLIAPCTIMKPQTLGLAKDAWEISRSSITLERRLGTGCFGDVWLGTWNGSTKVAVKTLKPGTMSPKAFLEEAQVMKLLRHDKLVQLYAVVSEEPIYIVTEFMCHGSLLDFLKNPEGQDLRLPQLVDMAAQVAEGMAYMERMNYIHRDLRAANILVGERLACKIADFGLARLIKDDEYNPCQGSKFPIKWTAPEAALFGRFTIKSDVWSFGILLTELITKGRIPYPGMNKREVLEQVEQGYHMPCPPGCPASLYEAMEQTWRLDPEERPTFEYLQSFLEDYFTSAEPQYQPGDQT
Procedure: as §1

SRC [1] = molecular target: T1, SRC (Homo sapiens (Human), UniProt P12931); assay: DiscoverX Kd Elect binding
T1 sequence (P12931 whole entry, looked up): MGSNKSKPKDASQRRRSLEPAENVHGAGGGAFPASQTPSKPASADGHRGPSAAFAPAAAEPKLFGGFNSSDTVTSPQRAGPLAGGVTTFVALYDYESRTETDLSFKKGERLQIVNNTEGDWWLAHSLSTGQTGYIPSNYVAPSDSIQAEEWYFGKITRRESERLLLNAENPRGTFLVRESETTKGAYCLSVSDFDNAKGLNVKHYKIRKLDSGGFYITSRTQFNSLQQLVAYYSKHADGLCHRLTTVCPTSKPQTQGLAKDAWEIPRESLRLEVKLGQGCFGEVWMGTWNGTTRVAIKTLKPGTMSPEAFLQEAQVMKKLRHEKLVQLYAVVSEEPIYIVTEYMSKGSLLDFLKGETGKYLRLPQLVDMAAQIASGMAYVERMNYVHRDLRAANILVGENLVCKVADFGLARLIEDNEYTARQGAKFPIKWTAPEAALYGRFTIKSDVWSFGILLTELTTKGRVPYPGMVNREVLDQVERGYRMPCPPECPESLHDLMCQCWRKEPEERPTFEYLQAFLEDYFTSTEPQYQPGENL
Procedure: as §1

FAK = FAK (Homo sapiens (Human), UniProt Q05397); assay: DiscoverX Kd Elect binding
FAK, sequence (Q05397 whole entry): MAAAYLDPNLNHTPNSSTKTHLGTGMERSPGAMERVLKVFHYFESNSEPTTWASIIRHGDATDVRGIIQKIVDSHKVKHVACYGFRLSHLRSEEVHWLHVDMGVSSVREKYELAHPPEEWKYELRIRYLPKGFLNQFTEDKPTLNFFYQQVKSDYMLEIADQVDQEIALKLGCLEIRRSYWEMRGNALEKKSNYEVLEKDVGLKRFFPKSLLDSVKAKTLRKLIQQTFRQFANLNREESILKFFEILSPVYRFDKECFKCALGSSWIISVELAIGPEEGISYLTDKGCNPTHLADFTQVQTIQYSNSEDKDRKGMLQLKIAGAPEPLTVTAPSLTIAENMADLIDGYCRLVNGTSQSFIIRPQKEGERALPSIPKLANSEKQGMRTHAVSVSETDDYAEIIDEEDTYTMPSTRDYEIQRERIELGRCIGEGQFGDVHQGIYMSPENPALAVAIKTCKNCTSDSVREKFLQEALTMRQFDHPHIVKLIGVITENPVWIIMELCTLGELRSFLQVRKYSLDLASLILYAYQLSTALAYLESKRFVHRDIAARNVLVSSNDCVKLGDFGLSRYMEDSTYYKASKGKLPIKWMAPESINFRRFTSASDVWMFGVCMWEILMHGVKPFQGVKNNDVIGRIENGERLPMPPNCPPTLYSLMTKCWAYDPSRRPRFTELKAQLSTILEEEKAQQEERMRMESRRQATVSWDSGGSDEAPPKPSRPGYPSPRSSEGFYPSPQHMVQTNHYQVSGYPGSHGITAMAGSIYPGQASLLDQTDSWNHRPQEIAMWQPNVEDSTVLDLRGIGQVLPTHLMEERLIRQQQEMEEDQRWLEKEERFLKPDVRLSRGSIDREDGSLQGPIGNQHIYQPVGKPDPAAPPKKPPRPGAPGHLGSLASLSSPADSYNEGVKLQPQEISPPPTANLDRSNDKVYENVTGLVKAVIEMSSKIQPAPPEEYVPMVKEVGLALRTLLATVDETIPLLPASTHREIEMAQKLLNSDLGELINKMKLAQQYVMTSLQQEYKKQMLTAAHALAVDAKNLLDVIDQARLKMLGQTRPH
Procedure: as §1

PLK1 = PLK1 (Homo sapiens (Human), UniProt P53350); assay: DiscoverX Kd Elect binding
Procedure: as §1

FYN = FYN (Homo sapiens (Human), UniProt P06241); assay: DiscoverX Kd Elect binding
Procedure: as §1

KIT = KIT (Homo sapiens (Human), UniProt P10721); assay: DiscoverX Kd Elect binding
KIT, sequence (P10721 26-976): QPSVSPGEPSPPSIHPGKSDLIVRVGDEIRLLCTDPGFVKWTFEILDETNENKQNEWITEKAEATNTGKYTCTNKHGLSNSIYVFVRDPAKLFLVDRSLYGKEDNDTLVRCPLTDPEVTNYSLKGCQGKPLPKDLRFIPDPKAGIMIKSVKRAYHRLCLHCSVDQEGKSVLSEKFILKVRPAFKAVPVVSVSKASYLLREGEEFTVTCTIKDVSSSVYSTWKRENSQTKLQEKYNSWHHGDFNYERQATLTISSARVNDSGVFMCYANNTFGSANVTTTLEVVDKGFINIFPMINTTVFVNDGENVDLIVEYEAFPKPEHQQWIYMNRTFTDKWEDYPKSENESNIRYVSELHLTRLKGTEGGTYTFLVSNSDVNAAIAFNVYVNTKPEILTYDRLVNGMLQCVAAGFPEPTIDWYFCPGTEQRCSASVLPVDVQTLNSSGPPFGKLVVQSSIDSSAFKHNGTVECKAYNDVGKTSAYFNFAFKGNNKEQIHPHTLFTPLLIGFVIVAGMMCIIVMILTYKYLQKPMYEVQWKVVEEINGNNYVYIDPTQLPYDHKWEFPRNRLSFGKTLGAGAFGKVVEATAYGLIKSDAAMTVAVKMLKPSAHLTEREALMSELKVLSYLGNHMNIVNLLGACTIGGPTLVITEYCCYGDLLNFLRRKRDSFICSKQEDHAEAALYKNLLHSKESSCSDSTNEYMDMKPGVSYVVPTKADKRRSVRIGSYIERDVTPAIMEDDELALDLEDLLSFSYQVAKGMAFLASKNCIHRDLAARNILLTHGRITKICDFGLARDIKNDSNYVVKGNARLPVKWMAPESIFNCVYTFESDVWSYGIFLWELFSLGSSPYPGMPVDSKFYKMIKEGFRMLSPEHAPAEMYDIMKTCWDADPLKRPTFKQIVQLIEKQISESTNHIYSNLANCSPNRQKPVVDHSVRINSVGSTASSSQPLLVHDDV
Procedure: as §1

PIK3CA = PIK3CA (Homo sapiens (Human), UniProt P42336); assay: DiscoverX Kd Elect binding
Procedure: as §1

AURKA = AURKA (Homo sapiens (Human), UniProt O14965); assay: DiscoverX Kd Elect binding
AURKA, sequence (O14965 whole entry): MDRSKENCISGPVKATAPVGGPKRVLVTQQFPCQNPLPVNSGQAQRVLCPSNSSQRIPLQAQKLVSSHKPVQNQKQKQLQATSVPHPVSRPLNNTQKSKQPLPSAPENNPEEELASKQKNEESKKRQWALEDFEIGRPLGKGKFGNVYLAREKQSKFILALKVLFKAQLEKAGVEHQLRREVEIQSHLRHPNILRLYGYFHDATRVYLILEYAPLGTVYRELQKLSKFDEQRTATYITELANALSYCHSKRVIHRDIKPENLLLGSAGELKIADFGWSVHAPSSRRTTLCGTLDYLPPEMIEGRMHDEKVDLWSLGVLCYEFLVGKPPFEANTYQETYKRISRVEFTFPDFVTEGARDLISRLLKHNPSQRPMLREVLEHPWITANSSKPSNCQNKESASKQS
Procedure: as §1

HCK = HCK (Homo sapiens (Human), UniProt P08631); assay: DiscoverX Kd Elect binding
Procedure: as §1

BLK = BLK (Homo sapiens (Human), UniProt P51451); assay: DiscoverX Kd Elect binding
Procedure: as §1

FLT3 (ITD, F691L) = FLT3 (ITD, F691L) (Homo sapiens, UniProt P36888, F691L/ITD); assay: DiscoverX Kd Elect binding
PDGFRb = PDGFRb (Homo sapiens (Human), UniProt P09619); assay: Reaction Biology HotSpot kinase assay; assay type: biochemical; details: 500 nM compound; read-out: Percentage kinase inhibition PDGFRb
In short: (§2)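 Single-point screen, 500 nM cpd; 20 min preinc with enzyme/substrate; start with ATP + 33P-ATP, 100 μM final; 2 h RT; P81 filter capture. Buffer: 20 mM HEPES pH 7.5, 10 mM MgCl2, 1 mM EGTA, 0.02% Brij35, 1% DMSO. Data as % activity vs DMSO.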

FGFR3 = FGFR3 (Homo sapiens (Human), UniProt P22607); assay: Reaction Biology HotSpot kinase assay; assay type: biochemical; details: 500 nM compound; read-out: Percentage kinase inhibition FGFR3
FGFR3, sequence (P22607 23-806): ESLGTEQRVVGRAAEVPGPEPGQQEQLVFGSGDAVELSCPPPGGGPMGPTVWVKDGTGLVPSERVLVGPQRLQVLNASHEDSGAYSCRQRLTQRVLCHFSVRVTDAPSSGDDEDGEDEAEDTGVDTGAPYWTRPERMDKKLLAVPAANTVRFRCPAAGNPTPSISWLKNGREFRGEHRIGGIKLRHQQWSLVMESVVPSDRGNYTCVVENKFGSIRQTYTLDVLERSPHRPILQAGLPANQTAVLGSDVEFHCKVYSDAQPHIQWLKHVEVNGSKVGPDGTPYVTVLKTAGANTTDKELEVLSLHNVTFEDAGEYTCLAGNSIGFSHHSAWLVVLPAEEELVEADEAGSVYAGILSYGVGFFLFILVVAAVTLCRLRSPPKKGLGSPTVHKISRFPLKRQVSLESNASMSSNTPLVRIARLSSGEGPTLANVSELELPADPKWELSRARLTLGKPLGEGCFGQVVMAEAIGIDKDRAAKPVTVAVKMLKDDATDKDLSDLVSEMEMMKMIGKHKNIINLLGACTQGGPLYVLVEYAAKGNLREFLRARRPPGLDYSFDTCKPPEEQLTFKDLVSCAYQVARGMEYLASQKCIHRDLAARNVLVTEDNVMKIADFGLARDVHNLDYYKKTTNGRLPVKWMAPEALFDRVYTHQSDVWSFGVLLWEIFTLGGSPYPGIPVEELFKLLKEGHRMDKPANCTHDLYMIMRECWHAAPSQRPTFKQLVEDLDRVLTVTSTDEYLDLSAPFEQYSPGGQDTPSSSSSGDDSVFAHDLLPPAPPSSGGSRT
In short: as §2

HeLa = assay: Proliferation inhibition at single concentration (CellTiter-Blue); assay type: cell-based; details: 1 μM compound
MCF-7 = assay: as above; assay type: cell-based; details: 1 μM compound
SRC [2] = molecular target: T1, SRC; assay: Inhibition of kinase enzymatic activity (IC50); assay type: biochemical
FLT3 = FLT3 (Homo sapiens (Human), UniProt P36888); assay: Inhibition of kinase enzymatic activity (IC50); assay type: biochemical; details: in vitro

| SMILES | Kd (LYN) [nM] | Kd (PIM1) [nM] | Kd (FGR) [nM] | Kd (SRC [1]) [nM] | Kd (FAK) [nM] | Kd (PLK1) [nM] | Kd (FYN) [nM] | Kd (KIT) [nM] | Kd (PIK3CA) [nM] | Kd (AURKA) [nM] | Kd (HCK) [nM] | Kd (BLK) [nM] | Kd (FLT3 (ITD, F691L)) [nM] | inhibition at 0.5 µM (PDGFRb) [%] | inhibition at 0.5 µM (FGFR3) [%] | IC50 (SRC [2]) [nM] | other results |
| --- | --- | --- | --- | --- | --- | --- | --- | --- | --- | --- | --- | --- | --- | --- | --- | --- | --- |
| Cc1ccc(C(=O)Nc2ccc(CN3CCN(C)CC3)c(C(F)(F)F)c2)cc1C#Cc1c(N)ncc2ccc(Cl)cc12 [HSN286] | 11 | 11000 | 7 | 16 | 5100 | > 30000 | 28 | 42 | 26000 | > 30000 | 3.6 | 3.9 | 110 | 96 | 88 | 4.5 | IC50 (MRC5): 1270 nM; inhibition at 1 µM (HeLa; Homo sapiens, HeLa, read-out: Percent inhibition of proliferation HeLa): 100%; inhibition at 1 µM (MCF-7; Homo sapiens, MCF7, read-out: Percent inhibition of proliferation MCF-7): 100% |
| Cc1ccc(C(=O)Nc2ccc(CN3CCN(C)CC3)c(C(F)(F)F)c2)cc1C#Cc1cnc(N)c2ncccc12 [HSN356, 3-((8-amino-1,7-naphthyridin-5-yl)ethynyl)-4-methyl-N-(4-((4-methylpiperazin-1-yl)methyl)-3-(trifluoromethyl)phenyl)benzamide] | 5.4 | 19000 | 7.9 | 15 | 4700 | 9600 | 38 | 7.2 | > 30000 | 5100 | 2.5 | 1.2 | 28 | – | – | 14.9 | IC50 FLT3 enzymatic inhibition (FLT3): single digit |
| Cc1ccc(C(=O)Nc2ccc(CN3CCN(C)CC3)c(C(F)(F)F)c2)cc1C#Cc1cc(N)nc2ccccc12 [HSN285] | – | – | – | – | – | – | – | – | – | – | – | – | – | 46 | 0 | – | – |
| CN(C)CC(O)CNC(=O)c1ccc(C#Cc2c(N)ncc3ccc(Cl)cc23)cc1 (centres unmarked) [HSM1702] | – | – | – | – | – | – | – | – | – | – | – | – | – | – | – | – | Percent inhibition of proliferation HeLa (HeLa): 17%; Percent inhibition of proliferation MCF-7 (MCF-7): 100% |
